Holding throughout (type): biochemical
The target of assay [1] is human TYK2 catalytic kinase (JH1) domain (Homo sapiens (Human), UniProt P29597). Put plainly: ADP-Glo Kinase Assay, recombinant TYK2 catalytic kinase (JH1) domain. The note with it: recombinant JH1 domain 2 nM, 10 μM ATP, JAK3-974 peptide, mean, read-out: TYK2 biochem IC50 (nM) Mean. As to the method:
(§1) Compounds of the disclosure were assessed for their ability to inhibit TYK2, JAK1, JAK2, and JAK3 activity. The inhibitory properties of the compounds of the disclosure described herein can be evidenced by testing in any one of the following protocols.
(§2) The kinase activity of recombinantly generated catalytic kinase (also known as JH1) domain of human JAK1, JAK2, JAK3 and TYK2 were evaluated in a plate-based assay using the ADP-Glo™ Kinase Assay platform. Specifically, 4 nM of recombinant JAK1 kinase domain is used to phosphorylate 50 μM of a JAK3-342 (sequence ALVDGYFRLTT) peptide in the presence of 35 μM ATP. Catalytic activities of recombinant JAK2, JAK3 and TYK2 kinase domain (0.2, 0.3 and 2 nM, respectively) are evaluated by the phosphorylation status of the JAK3-974 (50 μM; sequence LPLDKDYYVVR) peptide with the addition of ATP (15, 4 and 10 μM, respectively). The reactions proceed for 100 minutes and the catalytic activity is quantified by first depleting the unused ATP, converting the hydrolyzed ADP into ATP to generate luminescence in a luciferase reaction; which is the basis of the ADP-Glo platform. Compounds are tested at either 10 μM or 1 μM top concentration, 11 points of 3-fold dilution. The data is normalized and the percent activity versus log concentration of compound is fitted with a 4-parameter logistic model to generate a curve and an IC50 value.

Assay [2] addresses human JAK1 catalytic kinase (JH1) domain (Homo sapiens (Human), UniProt P23458). Put plainly: ADP-Glo Kinase Assay, recombinant JAK1 catalytic kinase (JH1) domain. The following applies: recombinant JH1 domain 4 nM, 35 μM ATP, JAK3-342 peptide, mean, read-out: JAK1 biochem IC50 (nM) Mean. On the procedure:
as §1, §2

The target in assay [3] is human JAK2 catalytic kinase (JH1) domain (Homo sapiens (Human), UniProt O60674). The experiment in a line: ADP-Glo Kinase Assay, recombinant JAK2 catalytic kinase (JH1) domain. The following applies: recombinant JH1 domain 0.2 nM, 15 μM ATP, JAK3-974 peptide, mean, read-out: JAK2 biochem IC50 (nM) Mean. As to the method: as §1, §2
Chain of human JAK2 catalytic kinase (JH1) domain (O60674 849-1124): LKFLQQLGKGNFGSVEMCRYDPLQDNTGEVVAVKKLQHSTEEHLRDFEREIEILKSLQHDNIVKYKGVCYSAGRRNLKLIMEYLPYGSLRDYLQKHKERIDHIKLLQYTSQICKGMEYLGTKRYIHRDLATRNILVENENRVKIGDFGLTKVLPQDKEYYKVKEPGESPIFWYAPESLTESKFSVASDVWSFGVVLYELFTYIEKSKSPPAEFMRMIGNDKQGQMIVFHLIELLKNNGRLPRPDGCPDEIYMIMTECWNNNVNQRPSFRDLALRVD
Assay [4] concerns the target human JAK3 catalytic kinase (JH1) domain (Homo sapiens (Human), UniProt P52333). The experiment in a line: ADP-Glo Kinase Assay, recombinant JAK3 catalytic kinase (JH1) domain. The following applies: recombinant JH1 domain 0.3 nM, 4 μM ATP, JAK3-974 peptide, mean, read-out: JAK3 biochem IC50 (nM) Mean. As to the method:
as §1, §2

Chain of human JAK1 catalytic kinase (JH1) domain (P23458 875-1153): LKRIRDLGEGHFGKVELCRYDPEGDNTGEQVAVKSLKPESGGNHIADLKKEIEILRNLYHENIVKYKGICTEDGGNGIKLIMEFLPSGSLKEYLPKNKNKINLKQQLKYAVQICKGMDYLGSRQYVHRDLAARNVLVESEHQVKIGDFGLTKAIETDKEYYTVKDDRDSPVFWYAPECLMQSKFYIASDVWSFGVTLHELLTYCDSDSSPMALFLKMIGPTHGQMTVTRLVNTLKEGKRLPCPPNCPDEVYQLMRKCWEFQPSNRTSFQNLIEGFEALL
Chain of human TYK2 catalytic kinase (JH1) domain (P29597 897-1176): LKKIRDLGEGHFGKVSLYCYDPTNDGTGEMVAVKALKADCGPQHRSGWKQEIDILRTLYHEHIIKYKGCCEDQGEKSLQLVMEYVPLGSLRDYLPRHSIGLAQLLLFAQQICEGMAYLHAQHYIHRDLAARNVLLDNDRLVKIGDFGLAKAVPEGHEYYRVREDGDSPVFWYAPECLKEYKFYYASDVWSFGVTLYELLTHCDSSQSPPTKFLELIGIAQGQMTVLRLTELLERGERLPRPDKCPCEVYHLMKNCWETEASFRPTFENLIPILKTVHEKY
Chain of human JAK3 catalytic kinase (JH1) domain (P52333 822-1111): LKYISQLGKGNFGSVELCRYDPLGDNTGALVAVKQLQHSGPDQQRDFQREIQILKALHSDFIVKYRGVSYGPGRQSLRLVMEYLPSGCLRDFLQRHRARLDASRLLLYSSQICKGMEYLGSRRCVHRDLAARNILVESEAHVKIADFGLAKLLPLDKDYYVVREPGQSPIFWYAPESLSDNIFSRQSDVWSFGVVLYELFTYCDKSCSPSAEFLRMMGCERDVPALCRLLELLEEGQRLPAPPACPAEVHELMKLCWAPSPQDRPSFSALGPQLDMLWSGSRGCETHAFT

In the case of `Cn1cc(-c2cn3ncc(F)c(N4CC5CCC(C4)N5C(=O)[C@@H]4C[C@H]4F)c3n2)cn1` (stereo in doubt) [Example 141, (3-(7-fluoro-2-(1-methyl-1H-pyrazol-4-yl)imidazo[1,2-b]pyridazin-8-yl)-3,8-diazabicyclo[3.2.1]octan-8-yl)((1S,2R)-2-fluorocyclopropyl)methanone], the IC50 in assay [1] came to 9.4 nM; in assay [2], 57 nM; in assay [3] it was 97 nM; in assay [4], 285 nM.
With `COc1cc(-c2cn3ncc(F)c(N4CC5CCC(C4)N5C(=O)[C@@H]4C[C@H]4F)c3n2)ccn1` (stereo in doubt) [Example 142, (3-(7-fluoro-2-(2-methoxypyridin-4-yl)imidazo[1,2-b]pyridazin-8-yl)-3,8-diazabicyclo[3.2.1]octan-8-yl)((1S,2R)-2-fluorocyclopropyl)methanone], the IC50 was found to be 19.6 nM in assay [1], 46 nM in assay [2], 270 nM in assay [3] and 514 nM in assay [4].
For `O=C([C@@H]1C[C@H]1F)N1C2CCC1CN(c1ncnn3cc(-c4cnn(C(F)F)c4)cc13)C2` [Example 1, (3-(6-(1-(difluoromethyl)-1H-pyrazol-4-yl)pyrrolo[2,1-f][1,2,4]triazin-4-yl)-3,8-diazabicyclo[3.2.1]octan-8-yl)((1S,2R)-2-fluorocyclopropyl)methanone], in that order: 9 nM, 228 nM, 315 nM and 1300 nM.
For `Cn1cc(-c2cc3c(N4CC5CCC(C4)N5C(=O)[C@@H]4C[C@H]4F)ncnn3c2)cn1` [Example 2, ((1S,2R)-2-fluorocyclopropyl)(3-(6-(1-methyl-1H-pyrazol-4-yl)pyrrolo[2,1-f][1,2,4]triazin-4-yl)-3,8-diazabicyclo[3.2.1]octan-8-yl)methanone], in that order: 4.7 nM, 324 nM, 292 nM and 820 nM.
For `O=C([C@@H]1CC1(F)F)N1C2CCC1CN(c1ncnn3cc(-c4cnn(C(F)F)c4)cc13)C2` [Example 3, ((S)-2,2-difluorocyclopropyl)(3-(6-(1-(difluoromethyl)-1H-pyrazol-4-yl)pyrrolo[2,1-f][1,2,4]triazin-4-yl)-3,8-diazabicyclo[3.2.1]octan-8-yl)methanone], in that order: 27.8 nM, 653 nM, 714 nM and 6160 nM.
With `O=C([C@H]1C[C@@H]1F)N1C2CCC1CN(c1ncnn3cc(-c4cnn(C(F)F)c4)cc13)C2` [Example 4, (3-(6-(1-(difluoromethyl)-1H-pyrazol-4-yl)pyrrolo[2,1-f][1,2,4]triazin-4-yl)-3,8-diazabicyclo[3.2.1]octan-8-yl)((1R,2S)-2-fluorocyclopropyl)methanone], the IC50 in assay [1] was 73.6 nM; in assay [2] it was 452 nM; in assay [3], 1450 nM; in assay [4], 776 nM.
For `CC1C(C(=O)N2C3CCC2CN(c2ncnn4cc(-c5cnn(C(F)F)c5)cc24)C3)C1(F)F` (centres unmarked) [Example 5, (2,2-difluoro-3-methylcyclopropyl)(3-(6-(1-(difluoromethyl)-1H-pyrazol-4-yl)pyrrolo[2,1-f][1,2,4]triazin-4-yl)-3,8-diazabicyclo[3.2.1]octan-8-yl)methanone] the same measures were 93.1 nM, 707 nM, 3050 nM and 3700 nM.
For `Cn1cc(-c2cc3c(N4CC5CCC(C4)N5C(=O)[C@H]4C[C@@H]4F)ncnn3c2)cn1` [Example 6, ((1R,2S)-2-fluorocyclopropyl)(3-(6-(1-methyl-1H-pyrazol-4-yl)pyrrolo[2,1-f][1,2,4]triazin-4-yl)-3,8-diazabicyclo[3.2.1]octan-8-yl)methanone], the half-maximal inhibitory concentration (IC50) in assay [1] turned out to be 133 nM; in assay [2] it was 682 nM; in assay [3] it was 2260 nM; in assay [4], 827 nM.
For `O=C(C1C(F)(F)C12CCC2)N1C2CCC1CN(c1ncnn3cc(-c4cnn(C(F)F)c4)cc13)C2` (centres unmarked) [Example 7, (3-(6-(1-(difluoromethyl)-1H-pyrazol-4-yl)pyrrolo[2,1-f][1,2,4]triazin-4-yl)-3,8-diazabicyclo[3.2.1]octan-8-yl)(2,2-difluorospiro[2.3]hexan-1-yl)methanone], in that order: 156 nM, 960 nM, 3960 nM and 6300 nM.
For `O=C([C@H]1CC1(F)F)N1C2CCC1CN(c1ncnn3cc(-c4cnn(C(F)F)c4)cc13)C2` [Example 8, ((R)-2,2-difluorocyclopropyl)(3-(6-(1-(difluoromethyl)-1H-pyrazol-4-yl)pyrrolo[2,1-f][1,2,4]triazin-4-yl)-3,8-diazabicyclo[3.2.1]octan-8-yl)methanone], in that order: 200 nM, 226 nM, 3740 nM and 1690 nM.
For `O=C(C1CCC1F)N1C2CCC1CN(c1ncnn3cc(-c4cnn(C(F)F)c4)cc13)C2` (centres unmarked) [Example 9, (3-(6-(1-(difluoromethyl)-1H-pyrazol-4-yl)pyrrolo[2,1-f][1,2,4]triazin-4-yl)-3,8-diazabicyclo[3.2.1]octan-8-yl)(2-fluorocyclobutyl)methanone] the same measures were 202 nM, 3080 nM, 5700 nM and 5780 nM.
For the compound `O=C(C1C(F)(F)C12CC2)N1C2CCC1CN(c1ncnn3cc(-c4cnn(C(F)F)c4)cc13)C2` (centres unmarked) [Example 10, (3-(6-(1-(difluoromethyl)-1H-pyrazol-4-yl)pyrrolo[2,1-f][1,2,4]triazin-4-yl)-3,8-diazabicyclo[3.2.1]octan-8-yl)(2,2-difluorospiro[2.2]pentan-1-yl)methanone], the IC50 is 207 nM in assay [1], 969 nM in assay [2], 4330 nM in assay [3] and 3220 nM in assay [4].
For `O=C(C1CCC1(F)F)N1C2CCC1CN(c1ncnn3cc(-c4cnn(C(F)F)c4)cc13)C2` (centres unmarked) [Example 11, (2,2-difluorocyclobutyl)(3-(6-(1-(difluoromethyl)-1H-pyrazol-4-yl)pyrrolo[2,1-f][1,2,4]triazin-4-yl)-3,8-diazabicyclo[3.2.1]octan-8-yl)methanone], in that order: 506 nM, 1650 nM, 8370 nM and 6670 nM.
For `N#CC1CC(C(=O)N2C3CCC2CN(c2ncnn4cc(-c5cnn(C(F)F)c5)cc24)C3)C1` (centres unmarked) [Example 12, 3-(3-(6-(1-(difluoromethyl)-1H-pyrazol-4-yl)pyrrolo[2,1-f][1,2,4]triazin-4-yl)-3,8-diazabicyclo[3.2.1]octane-8-carbonyl)cyclobutane-1-carbonitrile], the IC50 in assay [1] stood at 656 nM; in assay [2], 2980 nM; in assay [3], 7960 nM; in assay [4] it was 8350 nM.
For `CC1(C)C(C(=O)N2C3CCC2CN(c2ncnn4cc(-c5cnn(C(F)F)c5)cc24)C3)C1(F)F` (centres unmarked) [Example 13, (2,2-difluoro-3,3-dimethylcyclopropyl)(3-(6-(1-(difluoromethyl)-1H-pyrazol-4-yl)pyrrolo[2,1-f][1,2,4]triazin-4-yl)-3,8-diazabicyclo[3.2.1]octan-8-yl)methanone], the IC50 came out at 688 nM in assay [1], 3360 nM in assay [2], 9150 nM in assay [3] and 7220 nM in assay [4].
For `Cn1cc(-c2cc3c(N4CC5CCC(C4)N5C(=O)C4CC4)ccnn3c2)cn1` [Example 15, cyclopropyl(3-(6-(1-methyl-1H-pyrazol-4-yl)pyrrolo[1,2-b]pyridazin-4-yl)-3,8-diazabicyclo[3.2.1]octan-8-yl)methanone], in that order: 13 nM, 646 nM, 376 nM and 888 nM.
For `O=C(C1CC1)N1C2CCC1CN(c1ccnn3cc(-c4cnn(C(F)F)c4)cc13)C2` [Example 16, cyclopropyl(3-(6-(1-(difluoromethyl)-1H-pyrazol-4-yl)pyrrolo[1,2-b]pyridazin-4-yl)-3,8-diazabicyclo[3.2.1]octan-8-yl)methanone] the same measures were 13.8 nM, 264 nM, 257 nM and 1040 nM.

These data come from patent US20240360157A1, “TYK2 INHIBITORS” (BIOGEN MA INC., priority 2021, published 2024).
